This note sets out measurements from US5196510A, “Molecular recognition units” (Cytogen Corporation, priority 1990, dated 1993).

Data set [1] has as its system thrombus induced in the jugular vein. As to the kind of experiment: Rabbit thrombus model biodistribution and gamma camera imaging. Type of data set: in vivo. Conditions: for localization to / uptake in the clot in gamma camera images (in words): thrombus in left jugular vein, Tc-99m labeled peptide (FIGS. 3-5). Here is the method: Two kg or larger white New Zealand rabbits were anesthetised and a thrombus induced in the jugular vein as follows: the jugular vein was surgically exposed, side branches tied off and a segment of about 1 inch in length was clamped off. A silk thread was introduced through the segment with both ends external. Ten units of bovine thrombin in Tris-buffered saline (TBS) pH 7.5 were added by syringe. After 10 minutes, the clamp was removed and the wound closed. After 1 hour, approximately 50 μg of a MRU conjugate which is a fusion peptide labeled with Tc-99m as described in Section 8.1, supra, was injected via the contralateral ear vein. I-125 labeled fibrinogen was subsequently injected as a control in order to assess normal blood clearance and clot localization. […] The animals were then sacrificed and the amount of Tc-99m and I-125 in various organs was assessed. A Tc-99m labeled nonspecific peptide analogue containing the RYYD sequence served as a control.

For data set [2], the target named is T1, activated platelet fibrinogen receptor (Homo sapiens, UniProt P05106+P08514).
T1 construct: Platelets were isolated by placing 7 ml of platelet-rich-plasma onto a 50 ml column of Sepharose 2-B; endogenous in cells
The data set can be described thus: Inhibition of binding of 125-I PAC-1 antibody to activated platelets. Conditions: inhibition of 125-I PAC-1 binding to platelets activated with PMA or ADP, 37 degrees C, 1 hr; read-out: IC-50 (μM) Binding. Here is the method: The ability of the fusion peptides and of peptides comprising the binding domain of the peptides, specific for the activated platelet fibrinogen receptor, to inhibit the binding of PAC-1 antibody was assessed as follows:
Platelets were isolated by placing 7 ml of platelet-rich-plasma onto a 50 ml column of Sepharose 2-B equilibrated in Walshes 1% BSA buffer (1.0 g NaCl, 0.2 g KCl, 0.2 g MgCl2, 0.45 g NaH 0.9 g HEPES, 1.0 g BSA and 1.0 g dextrose in sufficient water to make exactly 1 liter), pH 7.45. The cloudiest tubes were pooled to obtain 14 ml of platelets (approximately 300,000/μl). The peptide in Walshes 1% BSA buffer and 20,000 CpM of 125-I-pAC 1 (5 μCi/μg) was added to one ml of this in a microfuge tube. Platelets were next activated with 0.1 μM phorbol myristate acetate or 10 μM ADP at 37 degrees C. After 1 hr, platelets were pelleted at top speed in a horizontal microfuge, washed gently, and the tube bottom removed with dog nail clippers and it, supernatant and wash were counted in a […]. […] Varied levels of peptide were examined and IC-50 was determined from a graph of % inhibition versus peptide concentration.

Data set [3] is classed as in vitro ADME, human. Conditions: 37° C. Here is the method:
A representative peptide designated "Pac-2" of the sequence: […] was labeled with 125-Iodine via standard techniques (Iodobead) (see Markwell, 1982, Anal. Biochem. 125: 427-32). Stability of the labeled peptide, having either an unblocked or blocked amino terminal end, to proteolytic enzymes in plasma was assayed as follows: Labeled peptides were incubated in fresh citrated human platelet-poor plasma in sealed tubes at 37° C. Aliguots were removed at various times and assayed using reverse phase HPLC. Degradation was calculated by loss of the original radioactive peak on a reverse phase HPLC C-6 column using 0-60% acetonitrile in 20 mM Na phosphate, pH, 6.0. Inhibitors of proteolytic enzymes in plasma were used to identify responsible enzyme classes and included: EDTA (metalloenzymes), benzamidine (serine endoproteases), bestatin (aminopeptidases) and leupeptin ([…]).

The target in the next data set is platelet aggregation (Homo sapiens, UniProt P05106+P08514). As to the kind of experiment: Inhibition of platelet aggregation (Payton Aggregometer, ADP). Type of data set: cell-based. Here is the method:
The ability of the fusion peptides and of peptides comprising the binding domain of the fusion peptides to inhibit platelet aggregation was assessed as follows:
[…], human plasma was prepared by centrifugation of citrated human plasma at 900 rpm, Sorvall Rc-3, for 20 minutes at room temperature. 0.5 mL of the platelet solution was placed in the cuvette of a Payton Aggregometer, followed by 50 μL of a solution containing various concentrations, up to 200 μM, of the peptide being assayed. After 1 minute, 5 μL of 10 mM ADP in water was added. The aggregation rate was assessed by a change in the slope of the absorbance curve.

Like-named read-outs stand apart in the source and are kept apart here. Residues, ends and D or L forms follow the SMILES beside them. No end group written: not given here.

T1 sequence (P08514 32-887 limits assumed): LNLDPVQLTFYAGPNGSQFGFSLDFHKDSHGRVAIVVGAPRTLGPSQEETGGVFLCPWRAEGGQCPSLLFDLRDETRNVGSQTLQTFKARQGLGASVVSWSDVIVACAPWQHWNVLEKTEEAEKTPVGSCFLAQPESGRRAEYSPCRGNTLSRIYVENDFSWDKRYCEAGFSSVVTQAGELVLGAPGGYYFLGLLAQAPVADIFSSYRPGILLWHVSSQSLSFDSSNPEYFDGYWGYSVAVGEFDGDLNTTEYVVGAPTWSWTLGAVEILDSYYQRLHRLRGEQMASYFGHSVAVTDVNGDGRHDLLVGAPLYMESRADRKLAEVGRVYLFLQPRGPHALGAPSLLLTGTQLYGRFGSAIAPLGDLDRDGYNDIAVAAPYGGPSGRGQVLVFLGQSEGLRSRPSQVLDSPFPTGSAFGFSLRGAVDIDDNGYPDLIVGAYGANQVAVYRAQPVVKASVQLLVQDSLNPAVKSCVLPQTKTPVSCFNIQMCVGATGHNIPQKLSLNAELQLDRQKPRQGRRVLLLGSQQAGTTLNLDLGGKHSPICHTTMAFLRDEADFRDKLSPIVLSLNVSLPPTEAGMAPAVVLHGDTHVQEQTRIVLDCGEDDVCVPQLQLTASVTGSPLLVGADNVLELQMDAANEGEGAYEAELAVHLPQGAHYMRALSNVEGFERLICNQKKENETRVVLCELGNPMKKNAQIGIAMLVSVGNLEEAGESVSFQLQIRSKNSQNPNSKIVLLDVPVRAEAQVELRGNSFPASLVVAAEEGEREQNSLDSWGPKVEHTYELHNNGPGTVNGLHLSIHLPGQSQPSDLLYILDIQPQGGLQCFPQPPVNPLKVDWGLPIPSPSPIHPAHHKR
T1 sequence (P08514 891-1039 partner limits assumed): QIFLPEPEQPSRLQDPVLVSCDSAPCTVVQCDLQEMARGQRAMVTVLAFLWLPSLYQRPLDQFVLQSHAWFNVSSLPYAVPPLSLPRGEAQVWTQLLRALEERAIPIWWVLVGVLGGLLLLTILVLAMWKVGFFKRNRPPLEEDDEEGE
T1 sequence (P05106 27-788): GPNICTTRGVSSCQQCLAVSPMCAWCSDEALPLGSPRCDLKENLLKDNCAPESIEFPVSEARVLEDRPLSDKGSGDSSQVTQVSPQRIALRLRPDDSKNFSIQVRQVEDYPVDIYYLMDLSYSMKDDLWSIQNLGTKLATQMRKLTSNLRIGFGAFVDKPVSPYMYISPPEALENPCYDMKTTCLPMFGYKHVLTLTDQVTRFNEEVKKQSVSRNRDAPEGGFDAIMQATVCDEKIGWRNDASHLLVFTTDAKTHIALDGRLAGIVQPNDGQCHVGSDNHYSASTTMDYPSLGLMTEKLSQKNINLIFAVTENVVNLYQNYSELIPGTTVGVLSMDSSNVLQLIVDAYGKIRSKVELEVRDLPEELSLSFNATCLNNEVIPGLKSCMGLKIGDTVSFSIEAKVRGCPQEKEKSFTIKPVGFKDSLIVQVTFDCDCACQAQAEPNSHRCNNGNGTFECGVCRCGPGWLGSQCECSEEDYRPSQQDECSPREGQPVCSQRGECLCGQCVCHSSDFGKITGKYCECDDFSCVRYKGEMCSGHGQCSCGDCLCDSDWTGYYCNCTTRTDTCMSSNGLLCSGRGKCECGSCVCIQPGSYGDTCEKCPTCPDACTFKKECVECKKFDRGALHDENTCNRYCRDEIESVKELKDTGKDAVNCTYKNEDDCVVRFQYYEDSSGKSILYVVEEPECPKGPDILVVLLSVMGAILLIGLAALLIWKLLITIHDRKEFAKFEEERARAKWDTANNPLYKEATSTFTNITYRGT
platelet aggregation, sequence (P08514 32-1039): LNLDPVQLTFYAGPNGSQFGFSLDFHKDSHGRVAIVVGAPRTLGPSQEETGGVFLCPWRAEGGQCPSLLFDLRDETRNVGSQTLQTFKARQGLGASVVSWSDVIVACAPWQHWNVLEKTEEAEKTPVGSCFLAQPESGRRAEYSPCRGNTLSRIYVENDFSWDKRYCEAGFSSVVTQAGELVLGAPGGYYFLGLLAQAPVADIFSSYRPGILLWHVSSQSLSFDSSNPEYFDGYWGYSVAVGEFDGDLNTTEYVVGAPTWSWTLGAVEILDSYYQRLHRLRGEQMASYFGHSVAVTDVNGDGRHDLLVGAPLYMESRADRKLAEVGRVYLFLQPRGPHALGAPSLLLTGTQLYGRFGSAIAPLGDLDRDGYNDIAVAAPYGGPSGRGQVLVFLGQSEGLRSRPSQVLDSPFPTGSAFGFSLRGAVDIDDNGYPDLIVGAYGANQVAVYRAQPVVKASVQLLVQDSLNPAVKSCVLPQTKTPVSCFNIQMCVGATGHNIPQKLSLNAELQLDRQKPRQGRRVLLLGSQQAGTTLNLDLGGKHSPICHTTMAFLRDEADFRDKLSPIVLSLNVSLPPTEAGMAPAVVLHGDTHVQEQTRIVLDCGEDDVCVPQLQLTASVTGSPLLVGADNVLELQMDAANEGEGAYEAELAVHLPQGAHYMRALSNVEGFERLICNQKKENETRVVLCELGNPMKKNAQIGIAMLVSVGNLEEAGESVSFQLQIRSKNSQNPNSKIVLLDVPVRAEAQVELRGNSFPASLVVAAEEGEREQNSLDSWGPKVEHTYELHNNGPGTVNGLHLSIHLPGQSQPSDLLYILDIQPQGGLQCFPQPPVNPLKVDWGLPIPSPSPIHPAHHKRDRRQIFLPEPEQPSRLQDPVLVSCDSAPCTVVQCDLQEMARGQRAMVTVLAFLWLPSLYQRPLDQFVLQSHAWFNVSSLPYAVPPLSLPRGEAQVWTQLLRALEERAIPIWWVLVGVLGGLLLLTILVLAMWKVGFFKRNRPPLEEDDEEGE
platelet aggregation, sequence (P05106 27-788): as the sequence (P05106 27-788) above

As to `CC(=O)N[C@@H](CO)C(=O)N[C@@H](Cc1ccc(O)cc1)C(=O)NCC(=O)N[C@@H](CCCNC(=N)N)C(=O)NCC(=O)N[C@@H](CC(=O)O)C(=O)N[C@H](C(=O)N[C@@H](CCCNC(=N)N)C(=O)NCC(=O)N[C@@H](CC(=O)O)C(=O)N[C@@H](Cc1ccccc1)C(=O)N[C@@H](CCCCN)C(=O)N[C@@H](CS)C(=O)N[C@H](C(=O)N[C@@H](CS)C(=O)N[C@@H](CS)C(=O)N[C@@H](C)C(N)=O)[C@@H](C)O)C(C)C` [PAC-8] (Ac-SYGRGDVRGDFKCTCCA-NH2), in data set [1] (gamma camera), the “time after injection at which the clot is imaged” value is not above 18 min. In data set [1] (gamma camera (FIG. 3D)), the “persistence of the clot image” value is not below 4 h. In addition, the “localization to / uptake in the clot in gamma camera images (in words)” value (shortened to “localization to / uptake in the clot”) in data set [1] is “localizes to and images the clot”.

Consider `CC(=O)N[C@@H](CCCCN)C(=O)N[C@@H](CS)C(=O)N[C@H](C(=O)N[C@@H](CS)C(=O)N[C@@H](CS)C(=O)N[C@@H](C)C(=O)N1CCC[C@H]1C(=O)N[C@@H](CO)C(=O)N[C@@H](Cc1ccc(O)cc1)C(=O)N[C@@H](Cc1ccc(O)cc1)C(=O)N[C@@H](CCCNC(=N)N)C(=O)NCC(=O)N[C@@H](CC(=O)O)C(=O)NCC(=O)N[C@@H](C)C(=O)N1CCC[C@H]1C(=O)N[C@@H](CO)C(=O)N[C@@H](Cc1ccc(O)cc1)C(=O)N[C@@H](Cc1ccc(O)cc1)C(=O)N[C@@H](CCCNC(=N)N)C(=O)NCC(=O)N[C@@H](CC(=O)O)C(=O)NCC(=O)N[C@@H](C)C(=O)N1CCC[C@H]1C(=O)N[C@@H](CO)C(=O)N[C@@H](Cc1ccc(O)cc1)C(=O)N[C@@H](Cc1ccc(O)cc1)C(=O)N[C@@H](CCCNC(=N)N)C(=O)NCC(=O)N[C@@H](CC(=O)O)C(=O)N[C@@H](C)C(N)=O)[C@@H](C)O` [PAC-15] (Ac-KCTCCAPSYYRGDGAPSYYRGDGAPSYYRGDA-NH2), for which the “localization to / uptake in the clot” value in data set [1] is “clearly localize and permit imaging of the clot”.

Consider `CC(=O)N1CCC[C@H]1C(=O)N[C@@H](CO)C(=O)N[C@@H](Cc1ccc(O)cc1)C(=O)N[C@@H](Cc1ccc(O)cc1)C(=O)N[C@@H](CCCNC(=N)N)C(=O)NCC(=O)N[C@@H](CC(=O)O)C(=O)NCC(=O)N[C@@H](C)C(=O)N1CCC[C@H]1C(=O)N[C@@H](CO)C(=O)N[C@@H](Cc1ccc(O)cc1)C(=O)N[C@@H](Cc1ccc(O)cc1)C(=O)N[C@@H](CCCNC(=N)N)C(=O)NCC(=O)N[C@@H](CC(=O)O)C(=O)NCC(=O)N[C@@H](C)C(=O)N1CCC[C@H]1C(=O)N[C@@H](CO)C(=O)N[C@@H](Cc1ccc(O)cc1)C(=O)N[C@@H](Cc1ccc(O)cc1)C(=O)N[C@@H](CCCNC(=N)N)C(=O)NCC(=O)N[C@@H](CC(=O)O)C(=O)N[C@@H](C)C(=O)N[C@@H](CCCCN)C(=O)N[C@@H](CS)C(=O)N[C@H](C(=O)N[C@@H](CS)C(=O)N[C@@H](CS)C(=O)N[C@@H](C)C(N)=O)[C@@H](C)O` [PAC-16] (Ac-PSYYRGDGAPSYYRGDGAPSYYRGDAKCTCCA-NH2), for which the “localization to / uptake in the clot” value in data set [1] is “clearly localize and permit imaging of the clot”.

As for ARRSPSYYRGDAGPYYAMDY, the IC50 in data set [2] stood at 10 µM.

On to ARRSPSYYRYDAGPYYAMDY, for which the IC50 in data set [2] stood at 90 µM.

acARRSPSYYRGDAGPYYAMDYKCTCCA-a [PAC-2]: the “Half-Life” value in data set [3] (inhibitor 1 mM Bestatin, human platelet-poor plasma) was found to be 8.5 min; in data set [3] (no inhibitor, 125-I labeled peptide in citrated human platelet-poor plasma) it was 2.1 min.

For the molecule acARRSPSYYRYYDAGPYYAMDYKCTCCA-a [PAC-3], the “localization to / uptake in the clot” value in data set [1] is reported as “no uptake in the region of the clot”. The “inhibition of platelet aggregation and/or PAC-1 binding (in words)” value on platelet aggregation was “lack of platelet inhibition”.
